This passage reports Ki results from patent US6916798B2, “Inhibitors of GSK-3 and uses thereof” (Vertex Pharmaceuticals Incorporated, priority 2001, dated 2005).

The experiment has as its target T1, GSK-3β (AA 1-420) (Homo sapiens, UniProt P49841).
T1 construct: GSK-3β (AA 1-420)
Description: Ki determination for the inhibition of GSK-3, standard coupled enzyme system. It is filed as biochemical. How it is done: Final substrate concentrations in the assay were 20 μM ATP (Sigma Chemicals, St Louis, Mo.) and 300 μM peptide (HSSPHQS(PO3H2)EDEEE, American Peptide, Sunnyvale, Calif.). Reactions were carried out at 30° C. and 20 nM GSK-3β. Final concentrations of the components of the coupled enzyme system were 2.5 mM phosphoenolpyruvate, 300 μM NADH, 30 μg/ml pyruvate kinase and 10 μg/ml lactate dehydrogenase.
An assay stock buffer solution was prepared containing all of the reagents listed above with the exception of ATP and the test compound of interest. The assay stock buffer solution (175 μl) was incubated in a 96 well plate with 5 μl of the test compound of interest at final concentrations spanning 0.002 μM to 30 μM at 30 ° C. for 10 min. […] The reaction was initiated by the addition of 20 μl of ATP (final concentration 20 μM). Rates of reaction were obtained using a Molecular Devices Spectramax plate reader (Sunnyvale, Calif.) over 10 min at 30° C. The Ki values were determined from the rate data as a function of inhibitor concentration.

Where [1] appears, read: 20 μM ATP, 300 μM peptide, 20 nM GSK-3β, 30° C., read-out: Ki values for GSK-3.

Where two headings read alike, the source gives them in different places.

T1 sequence (P49841 whole entry, the tested form may be a part): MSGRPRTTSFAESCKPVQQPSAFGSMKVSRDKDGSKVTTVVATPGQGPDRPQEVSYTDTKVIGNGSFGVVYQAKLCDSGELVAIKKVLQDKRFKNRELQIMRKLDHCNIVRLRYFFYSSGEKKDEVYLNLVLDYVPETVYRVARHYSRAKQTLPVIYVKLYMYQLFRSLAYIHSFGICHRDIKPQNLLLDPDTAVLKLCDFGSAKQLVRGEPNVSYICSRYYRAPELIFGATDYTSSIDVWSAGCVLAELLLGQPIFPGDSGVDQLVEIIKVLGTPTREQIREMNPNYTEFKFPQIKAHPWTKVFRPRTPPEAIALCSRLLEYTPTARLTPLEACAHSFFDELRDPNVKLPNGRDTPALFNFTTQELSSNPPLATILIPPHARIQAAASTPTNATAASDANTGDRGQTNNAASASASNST

Regarding `CC1=NNC(=O)/C1=N\Nc1ccccc1Cl` [Compound 8], the Ki under setting [1] lay within 100 to 1000 nM.
With `O=C1NN=C(c2ccccc2)/C1=N/Nc1ccccc1Cl` [Compound 12], the Ki under setting [1] was 100 to 1000 nM.
Still for that read-out and setting: to `O=C1NN=C(c2ccccn2)/C1=N/Nc1ccccc1Cl` [Compound 14] belongs 100 to 1000 nM; to `O=C1NN=C(c2cccnc2)/C1=N/Nc1ccccc1Cl` [Compound 15], 100 to 1000 nM; to `O=C1NN=C(c2ccncc2)/C1=N/Nc1ccccc1Cl` [Compound 16], 100 to 1000 nM.
The same measure, in the same setting: to `O=C1NN=C(c2ccccn2)C1=NNc1ccc(Cl)cc1` [Compound 17] belongs 100 to 1000 nM.
`O=C1NN=C(c2cccnc2)C1=NNc1ccc(Cl)cc1` [Compound 18]: the inhibitory constant (Ki) under setting [1] is below 100 nM.
The compound `COc1ccc(N/N=C2\C(=O)NN=C2c2cccnc2)cc1` [Compound 20] gave an inhibition constant Ki below 100 nM.
Regarding `COc1ccc(N/N=C2\C(=O)NN=C2c2ccncc2)cc1` [Compound 21], the Ki under setting [1] was below 100 nM.
Turning to `O=C1NN=C(c2ccncc2)C1=NNc1ccc(Cl)cc1` [Compound 24], the inhibition constant Ki under setting [1] was below 100 nM.
Regarding `O=C1NN=C(c2ccccc2)/C1=N/Nc1ccc(Cl)cc1` [Compound 25], the Ki under setting [1] was below 100 nM.
Consider `COc1ccc(N/N=C2\C(=O)NN=C2c2ccccn2)cc1` [Compound 26], for which the inhibitory constant (Ki) under setting [1] was in the range of 100 to 1000 nM.
As to `O=C1NN=C(c2ccccc2F)C1=NNc1ccc(Cl)cc1` [Compound 27], under setting [1], the inhibition constant Ki lay within 100 to 1000 nM.
Same read-out and setting: in the case of `COc1ccc(NN=C2C(=O)NN=C2c2ccccc2F)cc1` [Compound 33] it was 100 to 1000 nM; in that of `CCN(CC)c1ccc(N/N=C2\C(=O)NN=C2c2ccc(OC)cc2)cc1` [Compound 36], below 100 nM.
Still for that read-out and setting: in the case of `CCN(CC)c1ccc(NN=C2C(=O)NN=C2c2cc(OC)c(OC)c(OC)c2)cc1` [Compound 38] it was 100 to 1000 nM; in that of `COc1cc(N2CCOCC2)ccc1NN=C1C(=O)NN=C1c1ccc(OC)c(OC)c1` [Compound 40], 100 to 1000 nM.
Still for that read-out and setting: to `O=C1NN=C(c2ccc3c(c2)OCO3)C1=NNc1ccc(Cl)cc1` [Compound 45] belongs below 100 nM; to `COc1ccc(NN=C2C(=O)NN=C2c2ccc3c(c2)OCO3)cc1` [Compound 48], below 100 nM.
As to `COc1cccc(C2=NNC(=O)/C2=N\Nc2ccc(Cl)cc2)c1` [Compound 49], under setting [1], the inhibition constant Ki was below 100 nM.
Same read-out and setting: in the case of `COc1ccc(N/N=C2\C(=O)NN=C2c2cccc(OC)c2)cc1` [Compound 50] it was below 100 nM; in that of `COc1ccc(C2=NNC(=O)/C2=N\Nc2ccc(N(C)C)cc2)cc1` [Compound 51], below 100 nM.
With `COc1cccc(C2=NNC(=O)/C2=N\Nc2ccc(N(C)C)cc2)c1` [Compound 53], under setting [1], the Ki was below 100 nM.
Same read-out and setting: to `COc1ccc(C2=NNC(=O)C2=NNc2ccc(Br)cc2)cc1` [Compound 54] belongs below 100 nM; to `COc1ccc(C2=NNC(=O)C2=NNc2ccc(Br)cc2)cc1OC` [Compound 55], below 100 nM; to `COc1cccc(C2=NNC(=O)C2=NNc2ccc(Br)cc2)c1` [Compound 56], below 100 nM.
As for `COc1ccc(C2=NNC(=O)/C2=N\Nc2ccc(C#N)cc2)cc1` [Compound 57], the Ki under setting [1] is below 100 nM.
Consider `COc1cccc(C2=NNC(=O)/C2=N\Nc2ccc(C#N)cc2)c1` [Compound 59], for which the Ki under setting [1] was below 100 nM.
Same read-out and setting: to `COc1ccc(C2=NNC(=O)C2=NNc2ccc(C(F)(F)F)cc2)cc1` [Compound 63] belongs below 100 nM; to `COc1ccc(C2=NNC(=O)C2=NNc2ccc(C(F)(F)F)cc2)cc1OC` [Compound 64], below 100 nM.
Turning to `COc1cccc(C2=NNC(=O)C2=NNc2ccc(C(F)(F)F)cc2)c1` [Compound 65], the Ki under setting [1] is below 100 nM.
Consider `COc1ccc(C2=NNC(=O)C2=NNc2cccc(C(F)(F)F)c2)cc1` [Compound 66], for which the inhibitory constant (Ki) under setting [1] was below 100 nM.
Regarding `COc1ccc(C2=NNC(=O)C2=NNc2cccc(C(F)(F)F)c2)cc1OC` [Compound 67], the Ki under setting [1] was below 100 nM.
Regarding `COc1cccc(C2=NNC(=O)C2=NNc2cccc(C(F)(F)F)c2)c1` [Compound 68], the Ki under setting [1] is below 100 nM.
For the compound `COc1ccc(C2=NNC(=O)/C2=N\Nc2cccc(Cl)c2)cc1` [Compound 69], the Ki under setting [1] is below 100 nM.
For the compound `COc1cccc(C2=NNC(=O)/C2=N\Nc2cccc(Cl)c2)c1` [Compound 71], under setting [1], the Ki was below 100 nM.
On the same count and under the same terms, in the case of `COc1ccc(C2=NNC(=O)C2=NNc2cccc(OC)c2)cc1` [Compound 72] it was below 100 nM; in that of `COc1cccc(N/N=C2\C(=O)NN=C2c2cccc(OC)c2)c1` [Compound 74], below 100 nM.
Turning to `N#Cc1ccc(C2=NNC(=O)C2=NNc2ccc(Cl)cc2)cc1` [Compound 75], the inhibitory constant (Ki) under setting [1] was below 100 nM.
`COc1ccc(NN=C2C(=O)NN=C2c2ccc(C#N)cc2)cc1` [Compound 76]: the Ki under setting [1] lay in the range of 100 to 1000 nM.
For `COc1ccc(C2=NNC(=O)C2=NNc2ccc([N+](=O)[O-])cc2)cc1` [Compound 77], the Ki under setting [1] is below 100 nM.
On to `COc1cccc(C2=NNC(=O)C2=NNc2ccc([N+](=O)[O-])cc2)c1` [Compound 78], for which, under setting [1], the inhibition constant (Ki) is below 100 nM.
The same measure, in the same setting: in the case of `COc1ccc(C2=NNC(=O)C2=NNc2ccc(-c3ccccc3)cc2)cc1OC` [Compound 80] it was below 100 nM; in that of `COc1ccc(C2=NNC(=O)C2=NNc2ccc(-c3ccc(F)cc3)cc2)cc1` [Compound 82], below 100 nM; in that of `COc1ccc(C2=NNC(=O)C2=NNc2ccc(-c3ccc(F)cc3)cc2)cc1OC` [Compound 83], below 100 nM.
Same read-out and setting: to `COc1cccc(C2=NNC(=O)C2=NNc2ccc(-c3ccc(F)cc3)cc2)c1` [Compound 84] belongs 100 to 1000 nM; to `COc1ccc(C2=NNC(=O)C2=NNc2ccc(Oc3ccccc3)cc2)cc1` [Compound 85], below 100 nM.
The same measure, in the same setting: to `COc1cccc(C2=NNC(=O)C2=NNc2ccc(Oc3ccccc3)cc2)c1` [Compound 87] belongs below 100 nM; to `COc1ccc(C2=NNC(=O)C2=NNc2cccc(Oc3ccccc3)c2)cc1` [Compound 88], below 100 nM; to `COc1ccc(C2=NNC(=O)C2=NNc2cccc(Oc3ccccc3)c2)cc1OC` [Compound 89], below 100 nM.
Consider `COc1cccc(C2=NNC(=O)C2=NNc2cccc(Oc3ccccc3)c2)c1` [Compound 90], for which the Ki under setting [1] was below 100 nM.
Same read-out and setting: in the case of `COc1ccc(C2=NNC(=O)C2=NNc2ccc(OC)c(-c3cccc(N)c3)c2)cc1OC` [Compound 105, 4-[(3′-Amino-6-methoxy-biphenyl-3-yl)-hydrazono]-5-(3,4-dimethoxy-phenyl)-2,4-dihydro-pyrazol-3-one] it was below 100 nM.
Regarding `COc1ccc(C2=NNC(=O)C2=NNc2ccc(OC)c(-c3cc(OC)c(OC)c(OC)c3)c2)cc1OC` [Compound 109, 5-(3,4-Dimethoxy-phenyl)-4-[(6,3′,4′,5′-tetramethoxy-biphenyl-3-yl)-hydrazono]-2,4-dihydro-pyrazol-3-one], under setting [1], the Ki was below 100 nM.
On the same count and under the same terms, in the case of `CCOc1cc(N2CCOCC2)c(OCC)cc1NN=C1C(=O)NN=C1c1ccc(OC)c(OC)c1` [Compound 111, 4-[(2,5-Diethoxy-4-morpholin-4-yl-phenyl)-hydrazono]-5-(3,4-dimethoxy-phenyl)-2,4-dihydro-pyrazol-3-one] it was 100 to 1000 nM.
For `COc1cc(OC)c(NN=C2C(=O)NN=C2c2ccc(OC)c(OC)c2)c(OC)c1` [Compound 112, 5-(3,4-Dimethoxy-phenyl)-4-[(2,4,6-trimethoxy-phenyl)-hydrazono]-2,4-dihydro-pyrazol-3-one], under setting [1], the inhibition constant Ki lay within 100 to 1000 nM.

The Ki is a dissociation constant, usually derived from enzyme kinetics or from competition with a known ligand.
